Values joined by “and” are separate entries in the source; they are usually repeats but may differ in a detail not shown here. Equal entries are not always repeated.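 Test compounds were applied to cells in 96-well plates for 48 hours at 5 doses. GI50 marks 50% less growth. TGI: concentration producing complete growth inhibition.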
Experiments:
Experiment in all cases: NCI-60 cell line screen, 48 h
SK-MEL-5 melanoma = tested on: SK-MEL-5 melanoma
HCT-15 colon = tested on: HCT-15 colon
KM12 colon = tested on: KM12 colon
HT29 colon = tested on: HT29 colon
SNB-19 CNS = tested on: SNB-19 CNS
IGROV1 ovarian = tested on: IGROV1 ovarian
HL-60(TB) leukemia = tested on: HL-60(TB) leukemia
SK-OV-3 ovarian = tested on: SK-OV-3 ovarian
786-0 renal = tested on: 786-0 renal
COLO 205 colon = tested on: COLO 205 colon

SMILES	GI50 (SK-MEL-5 melanoma)	TGI (SK-MEL-5 melanoma)	GI50 (HCT-15 colon)	TGI (HCT-15 colon)	GI50 (KM12 colon)	TGI (KM12 colon)	GI50 (HT29 colon)	TGI (HT29 colon)	GI50 (SNB-19 CNS)	TGI (SNB-19 CNS)	GI50 (IGROV1 ovarian)	TGI (IGROV1 ovarian)	GI50 (HL-60(TB) leukemia)	TGI (HL-60(TB) leukemia)	GI50 (SK-OV-3 ovarian)	TGI (SK-OV-3 ovarian)	GI50 (786-0 renal)	TGI (786-0 renal)	GI50 (COLO 205 colon)	TGI (COLO 205 colon)
Cn1cc(-c2nn3cc(-c4cccs4)nc3s2)c2cc(F)ccc21	1.8 µM	12.9 µM	0.606 µM	> 100 µM	1.04 µM	> 100 µM	0.477 µM	14.8 µM	3.44 µM	> 100 µM	1.93 µM	> 100 µM	1.34 µM	15.5 µM	3.47 µM	70.9 µM	7.62 µM	52.3 µM	–	–
O=c1[nH]c(-c2ccccn2)nc2sc3c(c12)CCCCCC3	2.92 µM	> 100 µM	2.35 µM	> 100 µM	4.1 µM	> 100 µM	7.69 µM	> 100 µM	–	–	3.98 µM	> 100 µM	3.39 µM	> 100 µM	> 100 µM	> 100 µM	5.65 µM	> 100 µM	5.85 µM	> 100 µM
O=C(Nc1ccccc1)Nc1ccccc1CNc1nc(Nc2ccc(OCCN3CCCC3)cc2)ncc1Cl	5.27 µM	11.9 µM	2 µM	8.31 µM	2.15 µM	7.97 µM	1.66 µM	8.39 µM	5.53 µM	12.5 µM	7.02 µM	15.4 µM	1.06 µM	2.5 µM	–	–	1.11 µM	2.78 µM	–	–
CC[C@@]1(OC(=O)CN(C)C)C(=O)OCc2c1cc1n(c2=O)Cc2cc3ccccc3nc2-1	0.0379 µM	0.316 µM and 0.213 µM	0.257 µM	5.03 µM and 3.09 µM	–	–	0.156 µM	–	–	–	0.217 µM	4.43 µM and > 23.3 µM	0.0282 µM	0.389 µM and 0.179 µM	0.123 µM	2.88 µM	–	1.11 µM and 0.125 µM	0.288 µM	6.3 µM
O=c1c2cc(F)ccc2sc2c(NCCCN3CCCC3)nc3ccccc3c12	1.69 µM	3.07 µM	1.82 µM	3.53 µM	–	–	–	–	1.7 µM	3.53 µM	1.84 µM	3.85 µM	2.06 µM	4.58 µM	2.35 µM	7.79 µM	1.61 µM	3.08 µM	–	–
Clc1ccccc1C1=NN(c2ccccc2)C2c3cc(Br)ccc3OCC12 (centres undefined)	–	–	–	–	–	> 100 µM	–	> 100 µM	–	> 100 µM	–	> 100 µM	–	> 100 µM	–	> 100 µM	–	> 100 µM	–	> 100 µM
O=C1c2ccccc2C(=O)c2c1ccc1c3ccccc3n(Cc3ccccc3)c21	–	> 100 µM	–	> 100 µM	–	> 100 µM	–	> 100 µM	–	–	–	> 100 µM	–	> 100 µM	–	> 100 µM	–	> 100 µM	–	> 100 µM
C=C(C)[C@@H]1CCC[C@]2(C(=O)O)CC[C@]3(C)[C@@H](CC[C@@H]4[C@@]5(C)C/C(=C/c6ccncc6)C(=O)C(C)(C)[C@@H]5CC[C@]43C)[C@@H]12	1.96 µM	4.51 µM	1.85 µM	4.31 µM	1.8 µM	3.87 µM	2.69 µM	9.5 µM	3.69 µM	17.1 µM	3.02 µM	9.31 µM	–	–	4.91 µM	34.3 µM	2.24 µM	6.23 µM	1.64 µM	3.25 µM
CC1SC2(CCCCC2)N(NC(=O)c2[nH]c3ccc(F)cc3c2-c2ccccc2)C1=O (centres undefined)	> 100 µM	> 100 µM	> 100 µM	> 100 µM	63.7 µM	> 100 µM	> 100 µM	> 100 µM	55.6 µM	> 100 µM	16 µM	97.3 µM	–	–	> 100 µM	> 100 µM	28.4 µM	89.2 µM	> 100 µM	> 100 µM
C/C(=N\NC(=S)N1CCC(C2CCN(C(=S)N/N=C(\C)c3ccccn3)CC2)CC1)c1ccccn1	–	> 100 µM	–	–	–	> 100 µM	–	> 100 µM	–	> 100 µM	–	> 100 µM	–	> 100 µM	–	> 100 µM	–	> 100 µM	–	> 100 µM
CC(=O)N[C@@H]1CCC[C@H](C(=O)Nc2cc(-c3cnn4c3CC(C)(C)C4)c(Cl)cn2)C1	< 0.01 µM	< 0.0406 µM	0.0225 µM	> 100 µM	< 0.01 µM	12.2 µM	< 0.0108 µM	> 100 µM	< 0.01 µM	> 100 µM	< 0.01 µM	> 100 µM	< 0.01 µM	< 0.017 µM	0.0633 µM	> 100 µM	< 0.01 µM	29.6 µM	–	–
CCOC(=O)NNC(=O)NC12CC3CC(CC(C3)C1)C2	–	> 100 µM	–	> 100 µM	–	> 100 µM	–	> 100 µM	–	> 100 µM	–	> 100 µM	–	–	–	> 100 µM	–	> 100 µM	–	> 100 µM

Reference: PubChem BioAssay (NCI)
